Results taken from patent US8012975B2, “Antitumoral analogs of ET-743” (Pharma Mar, S.A., priority 2000, dated 2011).
Where two headings read alike, the source gives them in different places.

Assays:
[1] = Cytotoxic activity IC50, CV-1; details: African green monkey, CV-1 cells
DU-145 [2] = assay: Cytotoxic activity IC50, DU-145; details: Homo sapiens, DU-145, read-out: CYTOTOXIC ACTIVITIY IC50 (μM) DU-145
P-388 = assay: Cytotoxic activity IC50, P-388; details: Mus musculus, P388, read-out: CYTOTOXIC ACTIVITIY IC50 (μM) P-388
HT-29 [3] = assay: Cytotoxic activity IC50, HT-29; details: Homo sapiens, HT-29, read-out: CYTOTOXIC ACTIVITIY IC50 (μM) HT-29
A-549 = assay: Cytotoxic activity IC50, A-549; details: Homo sapiens, A549, read-out: CYTOTOXIC ACTIVITIY IC50 (μM) A-549
MEL-28 [4] = assay: Cytotoxic activity IC50, MEL-28; details: Homo sapiens, SK-MEL-28, read-out: CYTOTOXIC ACTIVITIY IC50 (μM) MEL-28
[5] = background statement, no test described; cited from earlier work
PC3 = assay: Cytotoxic activity (M) panel, Prostate PC3; details: Homo sapiens, PC-3, read-out: CYTOTOXIC ACTIVITY (M) PC3
LNCAP = assay: Cytotoxic activity (M) panel, Prostate LNCAP; details: Homo sapiens, read-out: CYTOTOXIC ACTIVITY (M) LNCAP
HT-29 [6] = assay: Cytotoxic activity (M) panel, Colon HT-29; details: Homo sapiens, HT-29, read-out: CYTOTOXIC ACTIVITY (M) HT-29
MEL-28 [7] = assay: Cytotoxic activity (M) panel, Melanoma Mel-28; details: Homo sapiens, SK-MEL-28, read-out: CYTOTOXIC ACTIVITY (M) Mel-28
5637 [8] = assay: Cytotoxic activity (M) panel, Bladder 5637; details: read-out: CYTOTOXIC ACTIVITY (M) 5637
CHSA = assay: Cytotoxic activity (M) panel, Chondrosarcoma CHSA; details: read-out: CYTOTOXIC ACTIVITY (M) CHSA
786-O = assay: Cytotoxic activity (M) panel, Renal 786-O; details: Homo sapiens, 786-0, read-out: CYTOTOXIC ACTIVITY (M) 786-O
Hs746t = assay: Cytotoxic activity (M) panel, Gastric Hs746t; details: Homo sapiens, read-out: CYTOTOXIC ACTIVITY (M) Hs746t
SK-HEP-1 = assay: Cytotoxic activity (M) panel, Liver SK-HEP-1; details: Homo sapiens, SK-HEP1, read-out: CYTOTOXIC ACTIVITY (M) SK-HEP-1
OSA-FH [9] = assay: Cytotoxic activity (M) panel, Osteosarcoma OSA-FH; details: read-out: CYTOTOXIC ACTIVITY (M) OSA-FH
PANC-1 = assay: Cytotoxic activity (M) panel, Pancreas PANC-1; details: Homo sapiens, PANC-1, read-out: CYTOTOXIC ACTIVITY (M) PANC-1
MX-1 = assay: Cytotoxic activity (M) panel, Breast MX-1; details: Homo sapiens, MX1, read-out: CYTOTOXIC ACTIVITY (M) MX-1
Y-79 = assay: Cytotoxic activity (M) panel, Retinoblastoma Y-79; details: Homo sapiens, Y79, read-out: CYTOTOXIC ACTIVITY (M) Y-79
FADU = assay: Cytotoxic activity (M) panel, Pharnynx FADU; details: Homo sapiens, read-out: CYTOTOXIC ACTIVITY (M) FADU
DU-145 [10] = assay: Cytotoxic activity (M) panel, Prostate DU-145; details: Homo sapiens, DU-145, read-out: CYTOTOXIC ACTIVITY (M) DU-145
NCI-H187 [11] = test system: NCI-H187
SW-694 = assay: Cytotoxic activity (M) panel, Fibrosarcoma SW-694; details: read-out: CYTOTOXIC ACTIVITY (M) SW-694
SK-OV-3 = assay: Cytotoxic activity (M) panel, Ovary SK-OV-3; details: Homo sapiens, SK-OV-3, read-out: CYTOTOXIC ACTIVITY (M) SK-OV-3
NCI-H187 [12] = assay: Cytotoxic activity (M) panel, SCL NCI-H187; details: Homo sapiens, NCI-H187, read-out: CYTOTOXIC ACTIVITY (M) NCI-H187
OSA-FH [13] = test system: OSA-FH
5637 [14] = test system: 5637
Molt 3 [15] = test system: Molt 3
Hut 78 [16] = assay: Cytotoxic activity (M) panel, Lymphoma Cutaneus T cell Hut 78; details: Homo sapiens, HuT78, read-out: CYTOTOXIC ACTIVITY (M) Hut 78, leukemias & lymphomas, Lymphoma Cutaneus T cell, line Hut 78
HL60 [17] = assay: cells; details: Homo sapiens, HL-60, read-out: CYTOTOXIC ACTIVITY (M) HL60, leukemias & lymphomas, ALL Promyelocytic leukemia, line HL60
H9 [18] = assay: cells; details: Homo sapiens, H9, read-out: CYTOTOXIC ACTIVITY (M) H9, leukemias & lymphomas, Lymphoma T-cell, line H9
K562 = assay: cells; details: Homo sapiens, K562, read-out: CYTOTOXIC ACTIVITY (M) K562
U-937 = assay: Cytotoxic activity (M) panel, Lymphoma Histiocytic U-937; details: Homo sapiens, U-937, read-out: CYTOTOXIC ACTIVITY (M) U-937
RAMOS [19] = test system: RAMOS
RAMOS [20] = assay: cells; details: Homo sapiens, read-out: CYTOTOXIC ACTIVITY (M) RAMOS, leukemias & lymphomas, Lymphoma Burkitts B celll, line RAMOS
H9 [21] = test system: H9
MC116 [22] = assay: Cytotoxic activity (M) panel, Lymphoma undifferentiated MC116; details: Homo sapiens, MC116, read-out: CYTOTOXIC ACTIVITY (M) MC116, leukemias & lymphomas, Lymphoma undifferentiated, line MC116
Molt 3 [23] = assay: Cytotoxic activity (M) panel, Acute lymphoblastic Molt 3; details: Homo sapiens, MOLT-3, read-out: CYTOTOXIC ACTIVITY (M) Molt 3, leukemias & lymphomas, ALL Acute lymphoblastic, line Molt 3
MC116 [24] = details: human
HL60 [25] = details: human
Hut 78 [26] = details: human

COCOc1c(OC)c(C)cc2c1[C@@H]1C3Cc4c(OC(=O)C(F)(F)C(F)(F)C(F)(F)F)c(C)c5c(c4[C@H](CNC(=O)CCc4ccccc4)N3[C@@H](C#N)[C@H](C2)N1C)OCO5 (stereo partly drawn)
IC50 [1]: 500 nM | IC50 (DU-145 [2]): 0.5 µM | IC50 (P-388): 0.5 µM | IC50 (HT-29 [3]): 0.5 µM | IC50 (A-549): 0.5 µM | IC50 (MEL-28 [4]): 0.5 µM

COC1=C(C)C(=O)C2=C(C1=O)[C@@H]1[C@@H]3Cc4c(OC(=O)CO)c(C)c(OC)c(O)c4[C@H](CNC(=O)C(C)=O)N3[C@@H](C#N)[C@H](C2)N1C [Saframycin R]
toxicity [5]: moderate toxicity

COc1c(C)cc2c(c1O)[C@@H]1C3Cc4c(OC(C)=O)c(C)c5c(c4[C@H](CNC(=O)/C=C/c4ccccc4)N3[C@@H](O)[C@H](C2)N1C)OCO5 (stereo partly drawn) [drawing 213]
IC50 (PC3): 4.7e-09 M | IC50 (LNCAP): 3.94e-11 M | IC50 (HT-29 [6]): 2.12e-09 M | IC50 (MEL-28 [7]): 2.18e-09 M | IC50 5637 [8]: 1.91e-10 M | IC50 (CHSA): 1.39e-09 M | IC50 (786-O): 1.72e-09 M | IC50 (Hs746t): 7.1e-11 M | IC50 (SK-HEP-1): 3.15e-09 M | IC50 (OSA-FH [9]): 1.09e-09 M | IC50 (PANC-1): 1.29e-10 M | IC50 (MX-1): 2.38e-09 M | IC50 (Y-79): 8.85e-11 M | IC50 (FADU): 3.71e-10 M | IC50 (DU-145 [10]): 2.22e-09 M | IC50 (NCI-H187 [11]): 0.0778 pM | IC50 (SW-694): 1.39e-06 M | IC50 (SK-OV-3): 8.74e-09 M

COc1c(C)cc2c(c1O)[C@@H]1C3Cc4c(OC(C)=O)c(C)c5c(c4[C@H](CNC(=O)[C@H](C)NC(=O)Cc4ccccc4)N3[C@@H](O)[C@H](C2)N1C)OCO5 (stereo partly drawn) [drawing 216]
IC50 (PC3): 9.34e-09 M | IC50 (HT-29 [6]): 1.2e-10 M | IC50 (MEL-28 [7]): 1.13e-09 M | IC50 5637 [8]: 7.85e-10 M | IC50 (CHSA): 2.25e-09 M | IC50 (786-O): 2.9e-09 M | IC50 (Hs746t): 6.25e-09 M | IC50 (SK-HEP-1): 9.03e-10 M | IC50 (PANC-1): 2.58e-09 M | IC50 (NCI-H187 [12]): 2.07e-12 M | IC50 (MX-1): 2.85e-06 M | IC50 (Y-79): 1.31e-11 M | IC50 (FADU): 3.77e-08 M | CYTOTOXIC ACTIVITY (M) OSA-FH (OSA-FH [13]): 1.35 to 08 M

COc1c(C)cc2c(c1O)[C@@H]1C3Cc4c(OC(C)=O)c(C)c5c(c4[C@H](CNC(=O)Cc4ccccc4)N3[C@@H](O)[C@H](C2)N1C)OCO5 (stereo partly drawn) [drawing 217]
IC50 (MEL-28 [7]): 4.48e-09 M | IC50 (CHSA): 1.09e-08 M | IC50 (786-O): 1e-08 M | IC50 (Hs746t): 1.37e-07 M | CYTOTOXIC ACTIVITY (M) 5637 5637 [14]: 3.18 to 09 M | IC50 (SK-HEP-1): 9.5e-09 M | IC50 (OSA-FH [9]): 9.5e-09 M | IC50 (PANC-1): 1.03e-08 M | IC50 (Y-79): 7.78e-09 M | IC50 (FADU): 1.14e-09 M

COc1c(C)cc2c(c1O)[C@@H]1C3Cc4c(OC(C)=O)c(C)c5c(c4[C@H](CNC(=O)CCc4ccccc4)N3[C@@H](O)[C@H](C2)N1C)OCO5 (stereo partly drawn) [drawing 221]
IC50 (Molt 3 [15]): 0.0155 pM | IC50 (Hut 78 [16]): 6.21e-11 M | IC50 (HL60 [17]): 9.38e-09 M | IC50 (H9 [18]): 1.99e-11 M | IC50 (K562): 2.33e-07 M | IC50 (U-937): 3.06e-11 M | IC50 (RAMOS [19]): 0.000777 nM

CCC(=O)N[C@@H](C)C(=O)NC[C@H]1c2c(c(OC(C)=O)c(C)c3c2OCO3)CC2[C@H]3c4c(cc(C)c(OC)c4O)C[C@@H]([C@H](O)N21)N3C (stereo partly drawn) [drawing 232]
IC50 (RAMOS [20]): 5.01e-09 M | IC50 (HL60 [17]): 7.36e-09 M | IC50 (K562): 1.18e-08 M | CYTOTOXIC ACTIVITY (M) H9 (H9 [21]): 2.43 to 08 M | IC50 (MC116 [22]): 1.49e-09 M | IC50 (Molt 3 [23]): 9.86e-10 M

COc1c(C)cc2c(c1O)[C@@H]1C3Cc4c(OC(C)=O)c(C)c5c(c4[C@H](COC(=O)/C=C/c4ccccc4)N3[C@@H](O)[C@H](C2)N1C)OCO5 (stereo partly drawn) [drawing 238]
IC50 (MC116 [24]): 6.38 nM | IC50 (Molt 3 [15]; human): 2480 pM | IC50 (HL60 [25]): 13.4 nM | IC50 (Hut 78 [26]): 7.31 nM | IC50 (H9 [18]): 1.91e-08 M | IC50 (K562): 6.13e-08 M | IC50 (RAMOS [19]; human): 0.715 nM

COc1c(C)cc2c(c1O)[C@@H]1C3Cc4c(OC(C)=O)c(C)c5c(c4[C@H](COC(=O)/C=C/c4ccccc4)N3[C@@H](O)[C@H](C2)N1C)OCO5 (stereo partly drawn) [drawing 239]
IC50 (MC116 [24]): 0.0527 nM | IC50 (Molt 3 [15]; human): 86.9 pM | IC50 (HL60 [25]): 3.1 nM | IC50 (Hut 78 [26]): 48.1 nM | IC50 (H9 [21]; human): 21.7 nM | IC50 (RAMOS [19]; human): 1.86 nM
